# Source: patent US20260137697A1, “THIAZOLO[5,4-D]PYRIMIDINE COMPOUNDS, COMPOSITIONS COMPRISING THEM AND USES THEREOF” (University de Montreal, priority 2022, published 2026)
# Where two headings read alike, the source gives them in different places.
# What was measured:
# pERK, NCIH1755 cells = assay: Phospho-ERK inhibition, AlphaLISA p-ERK 1/2, NCIH1755; format: cell-based, human; conditions: Table D-2; for IC50: NCIH1755 (BRAF G469A); for pERK value in parentheses, % inhibition (Ymin): NCIH1755, lowest point of IC50 curve
# Method: (§1) All cancer cell lines (A375, A101D, A2058, RKO, HT29 SK-MEL 30, IPC298, HepG2, HCT-116, Lovo, SW620, SW480, NCI-H358, NCI-H2122, Calu-6, NCIH2087, NCIH1755, NCIH1666 and Mewo) were obtained from ATCC and cultured in RPM1-1640 medium (Gibco) supplemented with 5% heat inactivated fetal bovine serum (FBS, Wisent) at 37° C. under 5% CO2. Cells were maintained in T175 flasks (Greiner). They were passaged by removing the culture medium, washing once in 10 mL of room temperature Phosphate Buffered Saline (PBS; Wisent) and incubating at 37° C. with 2 mL of 0.05% Trypsin (Thermo-Fisher). Trypsin was then inactivated by adding complete growth medium and the cells were then replated in a T175 culture dish at the appropriate dilution. All cell lines were routinely tested for mycoplasma contamination. Tissue type and mutational status of each cell line can be found in Table B.
# (c) Measurement of Phospho-ERK Inhibition in Cultivated Human Cancer Cell Lines by the AlphaLISA® SureFire® Ultra™ p-ERK 1/2 (Thr2O2/Tyr204)
# AlphaLISA® SureFire® Ultra™ p-ERK 1/2 (Thr202/Tyr204) analysis was conducted on cells plated in 100 μL of complete RPMI-1640 growth medium in 96-well flat-bottomed transparent dishes (Costar) at a density indicated in Table C. Cells were maintained overnight at 37° C. under 5% CO2 before treatment with compounds' dilution series for one hour. The cell density in cells/cm^2 corresponds to cell number divided by the area of one well of a 96-well plate (0.143 cm^2).
# In a dilution series 100 μL/well of test substance dilution prepared in complete RPMI-1640 growth media was added to the cells. The dilution series is selected so that ten concentrations cover a range from 10 μM to 0.33 nM. If necessary, the initial concentration of 10 μM is increased to 100 μM or lowered to 1 μM (as in the case of A375 and H1666 cells, which are generally more sensitive to the compounds) and further dilution is carried out accordingly. The final concentration of DMSO in the assay is set at 0.5%.
# After treatment, media was removed, and cells were lysed in 50 μL of 1× AlphaScreen Ultra Lysis Buffer (Perkin Elmer). The AlphaLISA® SureFire® Ultra™ p-ERK 1/2 (Thr202/Tyr204) (PerkinElmer) reactions were performed with 5 μL of cell lysate according to the manufacturer's specifications in 384-well proxyplates (Perkin Elmer) followed by overnight incubation of the reactions at room temperature in a humidified chamber. After completion of the reactions, the signals were recorded on an EnVision plate reader (Perkin Elmer) using built in AlphaLISA® settings.
# The effect of each compound dilution on the pERK signal was expressed in % inhibition and calculated as follows. An internal 100% inhibition control (1 μM trametinib, cat. No. HY-10999; MedChem Express; CAS No. 871700-17-3) was included in each plate and used as a measure of pERK background. First, the value obtained for trametinib was subtracted from each data point. The average of DMSO (vehicle) controls (set as 0% inhibition) was established and used to calculate % inhibition:
# (§2) The ability of each compound to inhibit pERK signal was expressed as an IC50 value obtained by plotting the inhibition values for each data point of a dilution series and fitting the obtained curves using a log(agonist) versus response—variable slope (four parameters) function using GraphPadPrism (V7.0) or Dotmatics Screening Ultra platform.
# When present, paradoxical pERK induction is inferred from the negative % inhibition values observed in the pERK IC50 curves of a compound.
# RKO cells = assay: Proliferation inhibition, CellTiter-Glo, RKO; format: cell-based, human; conditions: Table D-1, RKO (BRAF V600E), 3 days, read-out: Prolif. (proliferation EC50)
# Method: as §1
# CellTiter-Glo® viability analysis was conducted on cells plated in 100 μL of complete RPMI-1640 growth medium in 96-well flat-bottomed white opaque plates (Greiner or Croning) at a density indicated in Table E (for each CCL, number of cells plated per well of a 96-well plate to perform the CellTiter-Glo® cell viability assay). The cell density in cells/cm^2 would correspond to cell number divided by the area of one well of a 96-well plate (0.32 cm^2). […]
# After 3 days of incubation, the growth media were removed by aspiration and 60 μL of diluted CellTiter-Glo® reagent (10 μL CellTiter-Glo® reagent+50 μL of PBS) was added to each well. […] Luminescence signals were then acquired on a Synergy Neo2 plate reader (Biotek).
# The effect of each compound dilution on the proliferation of cancer cell lines was expressed in % inhibition and calculated as follows. […]
# as §2, with “proliferation” for “pERK signal”, “a EC50” for “an IC50”, “effect” for “inhibition”
Compound,"IC50 (pERK, NCIH1755 cells; Homo sapiens, NCI-H1755)","pERK value in parentheses, % inhibition (Ymin) (pERK, NCIH1755 cells)","EC50 (RKO cells; Homo sapiens, 72 h)","IC50 (pERK, NCIH1755 cells)",EC50 (RKO cells)
"Cc1ccc2c(Nc3cccc(Cl)c3F)nccc2c1NC(=O)c1csc2c(N)ncnc12 [Belvarafenib, reference compound]",30 to 300 nM,(−79) %,< 300 nM,,
Cc1c(F)cccc1S(=O)(=O)Nc1ccc(F)c(Nc2ncnc3sc(-n4cc(C(=O)N5C6CCC5CN(C)C6)c5ccccc54)nc23)c1F [Example 44],,(−9) %,,< 30 nM,< 300 nM
N#CC1(c2cccc3c2ncn3-c2nc3c(Nc4c(F)ccc(NS(=O)(=O)c5cccc(Cl)c5Cl)c4F)ncnc3s2)CC1 [Example 122],,(11) %,,< 30 nM,< 300 nM
